From patent US20260335272A1, “SAGERINIC ACID AND COMPOSITIONS CONTAINING SAME, FOR USE IN THE PREVENTION AND/OR TREATMENT OF SENESCENCE-RELATED DISORDERS IN A HUMAN OR ANIMAL” (A2P SCIENCES, priority 2022, published 2026)

How the values were obtained:
[1] = Protein deglycating activity: release of benzoic acid from 1-phenyl-1,2-propanedione (PPD), HPLC; details: for Activity (protein deglycating activity): 0.25% (w/V) product, 0.375% (w/V) PPD, 37 °C, 24 hours, phosphate buffer pH 7.4-methanol 50/50, benzoic acid by HPLC at 229 nm
Method: The test products in 0.25% (w/V) solution are left in contact with a 0.375% (w/V) solution of 1-phenyl-1,2-propanedione (PPD) for 24 hours at 37 °C. An HPLC dosing, at 229 nm after passage through an Ascentis® Express C18 column, was carried out at TO and again after 24 hours so as to determine the benzoic acid content. Calculating the percentage of pmol of benzoic acid/μmol of PPD in the reaction medium determines the activity of the deglycants.
Dissolve 0.178 g monopotassium phosphate and 0.955 g dibasic sodium phosphate dihydrate in 100 ml purified water. The pH is adjusted if necessary.
A mixture is made with 50 ml phosphate buffer pH 7.4 and 50 ml methanol.
A solution of exactly 0.375% (w/V) PPD is made in the mixture buffer phosphate pH 7.4—methanol (50/50).
A solution of approximately 0.25% (w/V) of the product to be tested is made in the mixture buffer phosphate pH 7.4—methanol (50/50).
Product to be tested: Alagebrium chloride (MedChem Express, ref. HY-106024B), Sagerinic acid (prepared according to example 5.1.).
A stock solution of approximately 0.08% (w/V) benzoic acid is made in ethyl alcohol. This solution is diluted 1:10 (V/V) in purified water (D).
(D) is then diluted 1:5, 2:5, 3:5 and 4:5 (V/V) in purified water. (D1, D2, D3 and D4).
A linear calibration line was established: area of the benzoic acid peak, with a retention time of 9.17 min and observed at 229 nm, as a function of the concentration in % (w/V).
(§1) A series of hermetically sealed pillboxes are filled with:
Stir after each addition.
0.05 ml is taken from each pillbox to measure the benzoic acid content at TO. The pillboxes are resealed and placed in an oven at 37 °C for a minimum of 21 to a maximum of 24 hours.
The same volume will be taken for dosing on leaving the oven.
The time at 37 °C must be exactly the same for the control and all the tests, so they are prepared as they go along.
The 0.05 ml samples are diluted 1:5 (V/V) in purified water, i.e. by adding 0.2 ml. […]
The % of pmol of benzoic acid/μmol of PPD in the reaction medium is calculated: • TT0×10000×100/122.12×12.655 […]

[2] = DPPH free radical elimination (anti-radical / oxidative stress effect); format: physicochemical; details: for Activity (elimination of DPPH free radical): antioxidant solution 0.0007% (ascorbic acid in ethyl alcohol, sagerinic acid in water), 0.15 ml in 4.5 ml, phosphate buffer pH 7, 5 min, OD at 519 nm
Method: The principle of the method for assessing the effect of sagerinic acid compared to ascorbic acid as a reference molecule is based on the elimination of a stable free radical, the 2,2-Diphenyl-1-picrylhydrazyl (DPPH Sigma Aldrich ref D9132).
Dissolve 0.177 g monopotassium phosphate and 0.730 g dibasic sodium phosphate dihydrate in 50 ml purified water. The pH is adjusted if necessary.
A solution of exactly 0.0027% (w/V) DPPH in methanol is made.
A solution of exactly 0.1% (w/V) ascorbic acid (Riedel-de-Haen, ref.33034) is made in ethyl alcohol. This solution is diluted to 0.0007% (V/V) in ethyl alcohol.
A solution of exactly 0.1% (w/V) sagerinic acid (prepared according to example 5.1.) is made in water. This solution is diluted to 0.0007% (V/V) in water.
as §1
For the sample and the blank: • After addition, stir for 5 min on a magnetic stirrer • Add 4 ml toluene • Stir for 30 seconds with a magnetic stirrer • Allow to settle for 20 seconds to 1 minute (if necessary) • Recover the organic phase from the top using an automatic pipette, taking care not to recover any aqueous phase • Read the OD of the organic phase using a spectrophotometer at 519 nm

SIRT1 = target: T1, SIRT1 (Homo sapiens, UniProt Q96EB6); experiment: SIRT1 Inhibitor/Activator screening kit (ab283377), fluorimetric sirtuin-1 activation; format: biochemical; details: for Activity (activation of sirtuin-1): 2.28% (w/V) activator in DMSO diluted 1:250 in DTT buffer, 25 μl, 37 °C, 30-60 min, Ex/Em=400/505 nm
T1 construct: fluorogenic deacetylation assay
T1 sequence (Q96EB6 1-747): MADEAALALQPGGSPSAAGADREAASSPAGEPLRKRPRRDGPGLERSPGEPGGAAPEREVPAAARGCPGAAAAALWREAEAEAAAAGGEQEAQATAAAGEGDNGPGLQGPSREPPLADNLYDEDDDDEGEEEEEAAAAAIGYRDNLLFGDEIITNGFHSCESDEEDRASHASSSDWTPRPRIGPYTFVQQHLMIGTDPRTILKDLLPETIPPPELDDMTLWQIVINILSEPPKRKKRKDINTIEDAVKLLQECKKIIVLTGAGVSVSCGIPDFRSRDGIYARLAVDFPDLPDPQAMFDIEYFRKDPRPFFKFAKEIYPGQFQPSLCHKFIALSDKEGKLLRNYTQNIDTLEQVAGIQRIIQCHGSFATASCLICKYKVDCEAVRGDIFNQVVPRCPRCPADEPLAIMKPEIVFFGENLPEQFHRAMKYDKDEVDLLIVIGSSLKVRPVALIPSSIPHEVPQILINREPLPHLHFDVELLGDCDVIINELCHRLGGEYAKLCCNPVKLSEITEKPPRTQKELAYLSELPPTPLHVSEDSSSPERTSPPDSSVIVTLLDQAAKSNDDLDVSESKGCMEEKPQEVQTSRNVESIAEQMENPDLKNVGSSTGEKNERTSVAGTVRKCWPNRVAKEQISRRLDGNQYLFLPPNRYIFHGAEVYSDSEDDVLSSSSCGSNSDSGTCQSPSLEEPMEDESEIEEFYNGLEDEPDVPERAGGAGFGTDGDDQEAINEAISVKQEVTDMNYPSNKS
From the text: The SIRT1 Inhibitor/Activator screening kit deacetylates the substrate with SIRT1, followed by cleavage of the deacetylated substrate to release the fluorescent group, which is detected by fluorimetry at Ex/Em=400/505 nm.
The SIRT1 activator enhances the SIRT1 activity resulting in a higher fluorescent signal compared to the control. This kit provides a rapid, simple, sensitive and reliable test, suitable for high-throughput screening of SIRT1 activators.
• Solutions of the kit: Reference ab283377 (Abeam) • Buffer • Substrate • SIRT1 • NAD • DTT • DMSO Réference 34869 (Honeywell Riedel-de-Haen)
A solution of exactly 2.28% (w/V) activator (resveratrol (Sigma Aldrich, ref.R5010) and sagerinic acid prepared according to example 5.1.) is made in DMSO. Dilute to 1:250 in the DTT buffer solution.
Preparation of the enzyme solution: Make the following additions to 3 separate wells:
• 1. To the SIRT1 enzyme solution wells, add: • 25 μl of undiluted activator solution (2.28% solution) in a well as activator control (AC) • 25 μl of DTT-free buffer in a well as an enzyme control (EC) • 25 μl of diluted activator solution as assay (S) • 2. In another well, add 50 μl of DTT-free buffer as a blank control (without enzyme). • 3. Mix well and incubate the plaque for 5 minutes at 37 °C
Preparation of the substrate: After incubation, make the following additions to each well:
Mix and incubate at 37 °C for 30-60 min.
Mix well and incubate for 10 min at 37 °C, protected from light.
Read the fluorescence (Ex/Em=400/505 nm).
The activation of sirtuin-1 by sagerinic acid was compared with that of resveratrol as a reference molecule.

Collagenase = Collagenase activity kit (Sigma Aldrich MAK293, FALGPA substrate), anti-collagenase activity; format: biochemical; details: vs reference molecule hamamelitannin
Method: A collagenase activity analysis kit (Sigma Aldrich MAK293) is used. The kit allows to screen collagenase inhibitors by measuring collagenase activity using a synthetic peptide (FALGPA) that mimics the structure of the collagen.
• Solutions of the kit: Reference MAK293-1KT (Sigma Aldrich) • Collagenase buffer (MAK293A-KC) • Collagenase solution (MAK293B-KC) • Collagenase substrate (MAK293C-KC) • Pharmethyl 96° ethyl alcohol, Reference 11371014 (Cristalco) • Purified water
A solution is made of exactly 1% (w/V) hamamelitannin (Extrasynthesis ref. 0958) in ethyl alcohol.
A solution of exactly 1% (w/V) sagerinic acid (prepared according to example 5.1.) is made in purified water.
as §1
• After addition, stir quickly by hand • Place in an oven at 37 °C for 30 minutes • Add 1.6 mL of purified water. Mix well. • Read the DO: Sample against blank, spectrophotometer at 345 nm.
The anti-collagenase activity of sagerinic acid was compared with that of hamamelitannin as a reference molecule.
In absolute values: Y=[(DOBlank 2−DOTest)−(DOBlank 1−DOcontrol)]/(DOBlank 1−DOcontrol)]×100

SMILES	Activity (protein deglycating activity) [1]	Activity (elimination of DPPH free radical) [2]	Activity (activation of sirtuin-1) (SIRT1)	effect on sirtuin activation (in words) (SIRT1)	protein deglycating activity (in words) [1]	inhibitory effect on proteases (collagenases) relative to hamamelitannin (Collagenase)	effect in eliminating free radicals relative to ascorbic acid ([2]; vs ascorbic acid)
Cc1sc[n+](CC(=O)c2ccccc2)c1C [Alagebrium, reference compound]	28.79 arbitrary dimensionless unit	–	–	–	–	–	–
O=C1O[C@H]([C@@H](O)CO)C(O)=C1O [Ascorbic acid, ascorbic acid, reference compound]	–	5.26 arbitrary dimensionless unit	–	–	–	–	–
Oc1ccc(C=Cc2cc(O)cc(O)c2)cc1 [Resveratrol, resveratrol, reference compound]	–	–	80.54 arbitrary dimensionless unit	–	–	–	–
O=C(O[C@H](Cc1ccc(O)c(O)c1)C(=O)O)C1C(c2ccc(O)c(O)c2)C(C(=O)O[C@H](Cc2ccc(O)c(O)c2)C(=O)O)C1c1ccc(O)c(O)c1 (stereo partly shown) [Sagerinic acid]	16.78 arbitrary dimensionless unit	9.70 arbitrary dimensionless unit	26.56 arbitrary dimensionless unit	good effect on sirtuin activation	good protein deglycating activity	more than 2 times	almost twice the effect of ascorbic acid
